The experiment concerns Male Sprague-Dawley rats trained for cocaine-CPP. The experiment can be described thus: Cocaine-CPP memory retrieval test, PJ-34 infused before testing. The note with it: intra-CeA infusion, p<0.01. It counts as in vivo, rat.

SMILES strings stand for the structures.

One compound from US8889707B2, “Treatment of addiction” (priority 2012, dated 2014) can be followed below.

Turning to `CN(C)CC(=O)Nc1ccc2[nH]c(=O)c3ccccc3c2c1.Cl` [PJ-34, N-(6-Oxo-5,6-dihydrophenanthridin-2-yl)-(N,N-dimethylamino)acetamide hydrochloride], the “Preference for the cocaine compartment” value (50 microM, 1.2 microl, tested 30 min after infusion, vs vehicle, FIG. 4A) is “abolished”. For the same compound, the “Abolished preference for the cocaine compartment in post-conditioning test” value is, setting by setting: (test 24 hours later) “persisted”; (test 7 days later) “persisted”; (test 14 days later) “persisted”.
